How the values were obtained:
Neutral α-Mannosidase = biological target: T1, Neutral α-Mannosidase (Homo sapiens, UniProt Q9NTJ4); assay: inhibition of human liver neutral α-mannosidase; format: biochemical; settings: for inhibition at 1000 µM: 1 mM inhibitor, read-out: % Inhibition of Glycosidase Activity, α-Mannosidase Neutral
T1 construct: Human liver glycosidases were assayed; from tissue; host or cells: human liver
T1 sequence (Q9NTJ4 1-1040): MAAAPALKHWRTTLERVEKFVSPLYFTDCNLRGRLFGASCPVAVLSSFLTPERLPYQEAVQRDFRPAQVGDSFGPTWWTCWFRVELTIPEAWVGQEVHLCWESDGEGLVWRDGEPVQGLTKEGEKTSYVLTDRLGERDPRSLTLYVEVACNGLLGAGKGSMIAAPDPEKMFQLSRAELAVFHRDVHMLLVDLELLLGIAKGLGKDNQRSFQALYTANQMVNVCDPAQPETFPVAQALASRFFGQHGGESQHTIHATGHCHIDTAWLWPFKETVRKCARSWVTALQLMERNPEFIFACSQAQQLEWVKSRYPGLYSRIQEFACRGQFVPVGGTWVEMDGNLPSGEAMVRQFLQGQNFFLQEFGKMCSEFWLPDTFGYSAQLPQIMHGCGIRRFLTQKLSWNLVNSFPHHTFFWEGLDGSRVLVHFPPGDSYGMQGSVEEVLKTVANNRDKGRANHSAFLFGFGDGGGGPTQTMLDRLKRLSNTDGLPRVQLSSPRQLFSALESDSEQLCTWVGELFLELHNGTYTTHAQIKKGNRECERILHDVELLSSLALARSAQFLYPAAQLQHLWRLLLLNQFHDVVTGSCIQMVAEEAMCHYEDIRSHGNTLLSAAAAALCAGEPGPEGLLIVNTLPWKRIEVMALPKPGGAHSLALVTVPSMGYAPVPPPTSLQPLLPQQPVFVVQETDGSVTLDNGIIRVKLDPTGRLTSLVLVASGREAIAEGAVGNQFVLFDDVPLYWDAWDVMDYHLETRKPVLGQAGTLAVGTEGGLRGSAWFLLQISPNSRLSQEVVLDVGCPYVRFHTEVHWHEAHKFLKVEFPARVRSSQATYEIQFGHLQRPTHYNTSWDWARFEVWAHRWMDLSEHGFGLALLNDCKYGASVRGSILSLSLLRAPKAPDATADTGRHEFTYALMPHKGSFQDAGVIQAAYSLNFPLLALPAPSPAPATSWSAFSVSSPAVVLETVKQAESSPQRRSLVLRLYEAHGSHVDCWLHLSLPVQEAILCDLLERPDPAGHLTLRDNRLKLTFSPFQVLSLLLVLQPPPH
Method: (§1) Human liver glycosidases were assayed in the absence and presence [1 mM] of each of the potential inhibitors, using the appropriate buffered 4-methylumbelliferyl glycosides as substrates, as previously described.^17 See Table I, below.

Golgi α-Mannosidase = biological target: T2, Golgi α-Mannosidase (Homo sapiens, UniProt Q16706); assay: inhibition of human liver Golgi α-mannosidase; format: biochemical; settings: 1 mM inhibitor; read-out: % Inhibition of Glycosidase Activity, α-Mannosidase Golgi
T2 construct: Human liver glycosidases were assayed; from tissue; host or cells: human liver
T2 sequence (Q16706 1-1144): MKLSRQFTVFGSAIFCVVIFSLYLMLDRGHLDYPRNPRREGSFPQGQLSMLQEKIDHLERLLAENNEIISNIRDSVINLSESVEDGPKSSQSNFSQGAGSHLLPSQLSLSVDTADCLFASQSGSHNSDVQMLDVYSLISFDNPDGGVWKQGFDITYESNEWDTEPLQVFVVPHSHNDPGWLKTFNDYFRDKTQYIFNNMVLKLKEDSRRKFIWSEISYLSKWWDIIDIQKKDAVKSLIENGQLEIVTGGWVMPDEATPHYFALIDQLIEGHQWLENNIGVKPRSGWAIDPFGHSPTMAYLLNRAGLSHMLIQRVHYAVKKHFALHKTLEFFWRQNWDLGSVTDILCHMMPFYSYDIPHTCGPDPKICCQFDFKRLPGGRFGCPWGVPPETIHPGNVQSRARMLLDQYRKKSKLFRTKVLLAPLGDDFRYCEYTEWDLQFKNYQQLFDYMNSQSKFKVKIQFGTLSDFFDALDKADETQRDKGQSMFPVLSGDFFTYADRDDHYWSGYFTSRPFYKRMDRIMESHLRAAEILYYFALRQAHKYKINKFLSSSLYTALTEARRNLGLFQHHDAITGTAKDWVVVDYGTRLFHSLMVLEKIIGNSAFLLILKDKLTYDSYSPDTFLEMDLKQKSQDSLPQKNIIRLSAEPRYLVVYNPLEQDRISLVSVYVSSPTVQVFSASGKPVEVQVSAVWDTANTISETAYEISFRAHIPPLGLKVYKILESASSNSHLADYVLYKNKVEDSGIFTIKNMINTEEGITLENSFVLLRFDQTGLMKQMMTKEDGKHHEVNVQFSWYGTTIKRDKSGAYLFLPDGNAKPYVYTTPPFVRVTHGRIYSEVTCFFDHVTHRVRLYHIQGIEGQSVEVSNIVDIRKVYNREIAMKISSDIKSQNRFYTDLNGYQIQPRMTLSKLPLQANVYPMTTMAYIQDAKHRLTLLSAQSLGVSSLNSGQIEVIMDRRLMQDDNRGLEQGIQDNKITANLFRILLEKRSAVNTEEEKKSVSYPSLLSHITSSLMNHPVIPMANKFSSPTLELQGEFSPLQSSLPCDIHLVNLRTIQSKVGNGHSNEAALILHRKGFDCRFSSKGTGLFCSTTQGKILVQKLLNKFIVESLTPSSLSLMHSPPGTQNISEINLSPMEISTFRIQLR
Method: as §1

SMILES	inhibition at 1000 µM (Neutral α-Mannosidase) [%]	inhibition at 1000 µM (Golgi α-Mannosidase) [%]	inhibition of neutral α-mannosidase (in words) (Neutral α-Mannosidase; compared with DIM (3))
NC[C@H]1O[C@H]([C@H](O)CO)[C@H](O)[C@@H]1O [Manhepamine (5), 1-amino-2,5-anhydro-1-deoxy-D-glycero-D-talo-heptitol]	2	–	–
OC[C@H]1NC[C@@H](O)[C@@H](O)[C@@H]1O [DMJ (1), deoxymannojirimycin]	30	45	–
OC[C@@H](O)[C@H]1NC[C@@H](O)[C@H]1O [DIM (3)]	89	96	–
OC[C@@H](O)[C@H]1N[C@H](CO)[C@@H](O)[C@H]1O [αHomoDIM (4), 2,5-dideoxy-2,5-imino-D-glycero-D-talo-heptitol]	76	92	decreases the inhibition of the lysosomal and neutral enzymes
OC[C@H]1N[C@H](CO)[C@@H](O)C(O)[C@@H]1O (stereo partly shown) [αHomoDMJ (2)]	33	56	–
